Source: patent publication US7465729B2, “Methods of treatment of menopause and perimenopause using eszopiclone” (Sepracor Inc., priority 2004, dated 2008)

Key:
conscious dogs = assay: Dose escalation safety study, cardiovascular and respiratory parameters
Procedure: To establish the safety of eszopiclone, a dose escalation study was carried out. Cardiovascular and respiratory parameters were evaluated in conscious dogs following acute intravenous administration of (R)-, (S)- or racemic zopiclone at three doses (3, 5 and 12 mg/kg).

mice = assay: Antimuscarinic activity in vivo: oxotremorine induced salivation; conditions: doses up to 300 mg/kg, p.o.
Procedure: Eszopiclone was evaluated for antimuscarinic activity in vivo.

[1] = acute intravenous, 3, 5 and 12 mg/kg

SMILES: CN1CCN(C(=O)O[C@@H]2c3nccnc3C(=O)N2c2ccc(Cl)cn2)CC1 [(R)-zopiclone]
- cardiotoxicity, as evidenced by the electrocardiogram (ECG) (conscious dogs; [1]): No evidence of cardiotoxicity
- effect on blood pressure (conscious dogs; [1]): no effect
- effect on heart rate (conscious dogs; [1]): no effect
- Blood gases and blood chemistries (pH, pCO2, pO2, hematocrit, and lactate) (conscious dogs; acute intravenous, 3, 5 and 12 mg/kg, all dose groups): remained unaffected
- hemodynamic effect (conscious dogs; intravenous, 12 mg/kg): did not produce a consistent hemodynamic effect
- antagonism of oxotremorine induced salivation (mice): neither (R)-, (S)-, nor racemic zopiclone significantly antagonized oxotremorine induced salivation
